Key:
human EAA2a receptor [1] = molecular target: T1, human EAA2a receptor (Homo sapiens, UniProt Q16478); experiment: [3H]-kainate binding assay (Scatchard analysis and displacement) on membranes of transfected COS-1 cells; settings: for rank order of potency in displacement of [3H]-labelled kainate binding: FIG. 6
T1 construct: This modification permitted the full length cDNA insert to be released as a 3.7 kb NotI/NotI fragment; expressed in transfected cells; host or cells: COS-1 (ATCC CRL 1650), transient, plasmid pcDNA1/humEAA2a; membranes
T1 sequence (Q16478 15-980): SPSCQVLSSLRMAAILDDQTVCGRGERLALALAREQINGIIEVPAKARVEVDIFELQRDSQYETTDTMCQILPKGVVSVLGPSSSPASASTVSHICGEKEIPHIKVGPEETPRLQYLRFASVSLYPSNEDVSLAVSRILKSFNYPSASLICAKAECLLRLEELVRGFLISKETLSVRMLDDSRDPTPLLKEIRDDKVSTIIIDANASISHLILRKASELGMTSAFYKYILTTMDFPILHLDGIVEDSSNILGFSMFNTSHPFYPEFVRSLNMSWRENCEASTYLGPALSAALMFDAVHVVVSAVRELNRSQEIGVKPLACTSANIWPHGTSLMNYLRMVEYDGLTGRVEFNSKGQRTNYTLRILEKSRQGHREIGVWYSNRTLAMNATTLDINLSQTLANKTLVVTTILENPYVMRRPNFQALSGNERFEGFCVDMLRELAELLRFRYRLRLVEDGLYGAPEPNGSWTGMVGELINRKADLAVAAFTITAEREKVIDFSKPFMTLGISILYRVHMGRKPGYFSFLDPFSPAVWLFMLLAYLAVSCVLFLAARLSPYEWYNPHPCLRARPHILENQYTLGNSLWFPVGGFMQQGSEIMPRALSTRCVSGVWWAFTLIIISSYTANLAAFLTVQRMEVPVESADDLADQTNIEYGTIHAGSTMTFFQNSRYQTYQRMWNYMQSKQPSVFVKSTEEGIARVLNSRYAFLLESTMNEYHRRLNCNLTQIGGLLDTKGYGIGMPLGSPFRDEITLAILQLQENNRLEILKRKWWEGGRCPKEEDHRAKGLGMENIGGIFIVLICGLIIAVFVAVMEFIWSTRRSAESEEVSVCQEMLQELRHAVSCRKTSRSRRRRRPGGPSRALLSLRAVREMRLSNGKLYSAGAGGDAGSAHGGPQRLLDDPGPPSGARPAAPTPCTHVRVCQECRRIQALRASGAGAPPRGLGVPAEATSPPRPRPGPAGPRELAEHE
Experimental: (§1) Transfected cells in the frozen state were resuspended in ice-cold distilled water using a hand homogenizer and centrifuged for 20 minutes at 50,000 g. The supernatant was discarded and the membrane pellet stored frozen at -70° C.
(§2) COS cell membrane pellets were suspended in ice cold 50 mM Tris-HCl (pH 7.55, 5C) and placed inside Spectrapor 7 (EDTA-treated, sulfur-fee) dialysis tubing. The suspension was placed in 4 liters of ice cold 50 mM Tris-HCl (pH 7.55, 5C) and dialyzed for 16-24 hours at 5C in order to remove endogenous glutamate that would compete for binding. The tissue suspension was recovered from the tubing along with a small volume of buffer used to rinse the tubing. This resultant membrane preparation was used as tissue source for binding experiments described below. Proteins were determined using the Pierce Reagent with BSA as standard.
Binding assays were then performed, using an amount of COS-derived membrane equivalent to from 25-100 ug as judged by protein determination and selected radiolabelled ligand. In particular, glutamate binding assays entailed formation of an incubation mixture consisting of 25-100 ug of tissue protein, and [3.4-3H]L-glutamic acid (47.3 Ci/mmole, 10 nM final) in 50 mM Tris-HCl (pH 7.55, 5C) in 1 ml final volume. Non-specific binding was in the presence of 1 mM L-glutamate. Samples were incubated on ice for 60 minutes in plastic minivials. Bound and free ligand were separated by centrifugation for 10 minutes at 50,000 g (4° C.). Tissue pellets were washed superficially with 2×6 ml of ice cold incubation buffer. Pellets were solubilized and counted in 5 ml of Beckman Ready Protein Scintillation cocktail.
For kainate binding assays, incubation mixtures consisted of 25-100 μg tissue protein and [vinylidene-3H] kainic acid (58 Ci/mmole, 5 nM final) in the cold incubation buffer, 1 ml final volume. Non-specific binding was in the presence of 1 mM L-glutamate. Samples were incubated as for the glutamate binding assays, and bound and free ligand were separated by rapid filtration using a Brandel cell harvester and GF/B filters pro-soaked in ice-cold 0.3% polyethyleneimine. Filters were washed twice in 6 ml of the cold incubation buffer, then placed in scintillation vials with 5 ml of Beckman Ready-Safe scintillation cocktail for counting.

human EAA2a receptor [2] = molecular target: T1, human EAA2a receptor; experiment: [3H]-glutamate binding assay on membranes of transfected COS-1 cells; settings: [3H]-glutamate at 10 nM; non-specific binding with 1 mM L-glutamate
Experimental: as §1, §2
Binding assays were then performed, using an amount of COS-derived membrane equivalent to from 25-100 ug as judged by protein determination and selected radiolabelled ligand. In particular, glutamate binding assays entailed formation of an incubation mixture consisting of 25-100 ug of tissue protein, and [3.4-3H]L-glutamic acid (47.3 Ci/mmole, 10 nM final) in 50 mM Tris-HCl (pH 7.55, 5C) in 1 ml final volume. […] Pellets were solubilized and counted in 5 ml of Beckman Ready Protein Scintillation cocktail.

Compound | rank order of potency in displacement of [3H]-labelled kainate binding (human EAA2a receptor [1]) | also measured
N[C@@]1(C(=O)O)CC[C@@H](C(=O)O)C1 [1S,3R-ACPD] |  | displacement of kainate (human EAA2a receptor [1]; concentrations up to 100 uM): No displacement
N#Cc1cc2[nH]c(=O)c(=O)[nH]c2cc1[N+](=O)[O-] [CNQX] | kainate>domoate>quisqualate>glutamate>DNQX>dihydrokainate>CNQX>AMPA | 
O=c1[nH]c2cc([N+](=O)[O-])c([N+](=O)[O-])cc2[nH]c1=O [DNQX] | kainate>domoate>quisqualate>glutamate>DNQX>dihydrokainate>CNQX>AMPA | 
CC(C)[C@H]1CN[C@H](C(=O)O)[C@H]1CC(=O)O [dihydrokainate] | kainate>domoate>quisqualate>glutamate>DNQX>dihydrokainate>CNQX>AMPA | 
C/C(=C/C=C/[C@@H](C)C(=O)O)[C@H]1CN[C@H](C(=O)O)[C@H]1CC(=O)O [domoate] | kainate>domoate>quisqualate>glutamate>DNQX>dihydrokainate>CNQX>AMPA | 
N[C@@H](CCC(=O)O)C(=O)O [glutamate, L-glutamic acid] | kainate>domoate>quisqualate>glutamate>DNQX>dihydrokainate>CNQX>AMPA | specific binding of labelled ligand (human EAA2a receptor [2]): specific
C=C(C)[C@H]1CN[C@H](C(=O)O)[C@H]1CC(=O)O [kainate, kainic acid] | kainate>domoate>quisqualate>glutamate>DNQX>dihydrokainate>CNQX>AMPA | Kd (human EAA2a receptor [1]): 2.9 nM; maximum binding (Bmax) (human EAA2a receptor [1]; Scatchard analysis of [3H]-kainate binding): 691 fmol/mg protein; specific binding of labelled ligand (human EAA2a receptor [1]; [3H]-kainate at 5 nM, non-specific binding with 1 mM L-glutamate): specific; kainate binding affinity (in words) (human EAA2a receptor [1]; nanomolar range): high affinity
N[C@@H](Cn1oc(=O)[nH]c1=O)C(=O)O [quisqualate] | kainate>domoate>quisqualate>glutamate>DNQX>dihydrokainate>CNQX>AMPA | 
